Biological target: Human CYP17 (Homo sapiens (Human), UniProt P05093)
Experiment: CYP17 Total SPA Assay
Format: biochemical
Details: microsomes from HEK2 cells stably transfected with CYP17; 3H-Pregnenolone 1 uM; NADPH 2 mM; 45 minutes at room temperature
Procedure: CYP17 Total SPA Assay The assays were performed in U-bottom 384-well optiplates. […] The reaction was initiated by the combination of the microsomes and substrates in wells containing compound. The reaction was incubated at room temperature for 45 minutes and terminated by adding 7.5 μl of 0.2N HCl to each well. […] The plate was sealed and incubated overnight with shaking at 4° C. The beads were allowed to settle in the plate for 1 hour and the plate read on a TOPCOUNT® (Perkin-Elmer) plate reader. […] The final concentration of reagents in the assays are NADPH, 2 mM; 3H-Pregnenolone, 1 uM; microsomes, 1.25 ug/ml; […] Dose response curves were generated to determine the concentration required inhibiting 50% of enzyme activity (IC50). Compounds were dissolved at 10 mM in dimethylsulfoxide (DMSO) and evaluated at eleven concentrations, each in duplicate. IC50 values were derived by non-linear regression analysis. Table 22 below lists the IC50 values for the following Examples of this invention measured in the Total CYP17 SPA Assay hereinabove.

Human CYP17, sequence (P05093 whole entry): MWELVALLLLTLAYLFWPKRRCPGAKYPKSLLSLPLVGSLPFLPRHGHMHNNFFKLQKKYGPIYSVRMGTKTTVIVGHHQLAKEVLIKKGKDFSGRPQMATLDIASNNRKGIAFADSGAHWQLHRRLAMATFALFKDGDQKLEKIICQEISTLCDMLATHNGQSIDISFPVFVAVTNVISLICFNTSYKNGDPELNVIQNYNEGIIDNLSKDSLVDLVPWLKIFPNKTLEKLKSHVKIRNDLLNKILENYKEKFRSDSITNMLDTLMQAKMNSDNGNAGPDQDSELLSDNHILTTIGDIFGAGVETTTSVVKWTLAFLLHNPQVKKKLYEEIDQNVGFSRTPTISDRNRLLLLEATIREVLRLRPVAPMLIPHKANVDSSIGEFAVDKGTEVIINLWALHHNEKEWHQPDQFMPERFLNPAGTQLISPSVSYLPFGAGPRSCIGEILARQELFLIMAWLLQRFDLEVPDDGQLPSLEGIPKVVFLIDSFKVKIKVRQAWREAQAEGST

| IC50 [nM] | SMILES |
| --- | --- |
| 56 | COc1ccncc1-c1ccc(NS(C)(=O)=O)cc1OCC(F)(F)F [Example 233, N-(4-(4-methoxypyridin-3-yl)-3-(2,2,2-trifluoroethoxy)phenyl)methanesulfonamide] |
| 117 | COc1cc(NS(=O)(=O)c2ccc(Cl)cc2)ccc1-c1cncnc1C [Example 172, 4-chloro-N-(3-methoxy-4-(4-methylpyrimidin-5-yl)phenyl)benzenesulfonamide] |
| 3.4 | COc1cc(NS(=O)(=O)Cc2ccc(Cl)cc2)ccc1-c1cncnc1C [Example 173, 1-(4-chlorophenyl)-N-(3-methoxy-4-(4-methylpyrimidin-5-yl)phenyl)methanesulfonamide] |
| 2.1 | COc1cc(NS(C)(=O)=O)ccc1-c1cnccc1C1CC1 [Example 225, N-(4-(4-cyclopropylpyridin-3-yl)-3-methoxyphenyl)methanesulfonamide] |
| 27 | COc1cc(NS(=O)(=O)c2cccc3cccnc23)ccc1-c1cncc2ccccc12 [Example 154, N-(4-(isoquinolin-4-yl)-3-methoxyphenyl)quinoline-8-sulfonamide] |
| 11 | COc1cc(NS(=O)(=O)c2cccc3ccccc23)ccc1-c1cncc2ccccc12 [Example 144, N-(4-(isoquinolin-4-yl)-3-methoxyphenyl)naphthalene-1-sulfonamide] |
| 118 | COc1cc(NS(=O)(=O)c2cccc3cccnc23)ccc1-c1cncnc1C [Example 176, N-(3-methoxy-4-(4-methylpyrimidin-5-yl)phenyl)quinoline-8-sulfonamide] |
| 8.1 | CCS(=O)(=O)Nc1ccc(-c2cncc3ccccc23)c(OC)c1 [Example 156, N-(4-(isoquinolin-4-yl)-3-methoxyphenyl)ethanesulfonamide] |
| 1.4 | Cc1cc(NS(C)(=O)=O)ccc1-c1cnccc1OCC(F)(F)F [Example 198, N-(3-methyl-4-(4-(2,2,2-trifluoroethoxy)-3-pyridinyl)phenyl) methane sulfonamide] |
| 59 | COc1cc(NS(=O)(=O)c2ccc3ccccc3c2)ccc1-c1cncnc1C [Example 175, N-(3-methoxy-4-(4-methylpyrimidin-5-yl)phenyl)naphthalene-2-sulfonamide] |
| 120 | COc1cc(NS(C)(=O)=O)ccc1-c1cncn2cccc12 [Example 250, N-(3-methoxy-4-(pyrrolo[1,2-c]pyrimidin-4-yl)phenyl)methanesulfonamide] |
| 118 | COc1cc(NS(=O)(=O)c2cn(C)c(C)n2)ccc1-c1cncc2ccccc12 [Example 158, N-(4-(isoquinolin-4-yl)-3-methoxyphenyl)-1,2-dimethyl-1H-imidazole-4-sulfonamide] |
| 7.7 | Cc1ccncc1-c1ccc(NS(=O)(=O)C2CC2)cc1OCC(F)(F)F [Example 184] |
| 100 | COc1cc(NS(C)(=O)=O)ccc1-c1cncnc1C1CCCCC1 [Example 221, N-(4-(4-cyclohexylpyrimidin-5-yl)-3-methoxyphenyl)methanesulfonamide] |
| 104 | Cc1cc(NS(C)(=O)=O)ccc1-c1cnccc1-c1ccccc1 [Example 12, N-(3-methyl-4-(4-phenyl-3-pyridinyl)phenyl)methanesulfonamide] |
| 59 | CS(=O)(=O)Nc1ccc(-c2cncc3ccccc23)c(OCC(F)(F)F)c1 [Example 232, N-(4-(isoquinolin-4-yl)-3-(2,2,2-trifluoroethoxy)phenyl)methanesulfonamide] |
| 131 | COc1cc(NS(=O)(=O)c2cccnc2)ccc1-c1cncnc1C [Example 166, N-(3-methoxy-4-(4-methylpyrimidin-5-yl)phenyl)pyridine-3-sulfonamide] |
| 5.4 | COc1cc(NS(=O)(=O)c2ccccc2)ccc1-c1cncnc1C [Example 165, N-(3-methoxy-4-(4-methylpyrimidin-5-yl)phenyl)benzenesulfonamide] |
| 6.6 | COc1cc(NS(C)(=O)=O)ccc1-c1cncc2ccccc12 [Example 142, N-(4-(isoquinolin-4-yl)-3-methoxyphenyl)methanesulfonamide] |

— US8916553B2 (Bristol-Myers Squibb Company, priority 2010, dated 2014)
